{"source": "patent US8598383B2", "about": "“Pharmaceutical composition for treating or preventing degenerative and inflammatory diseases” (Neurotech Pharmaceuticals Co., Ltd., priority 2006, dated 2013)", "key": {"[1]": {"system": "TNF-alpha gene expression in BV2 cell line", "assay": "Suppressing effect on gene expression (RT-PCR), TNF-alpha", "type": "cell-based", "details": "gene expression vs LPS control, BV2, 24 hours", "experimental": "Effects of the 2-hydroxybenzoic acid derivatives on iNOS gene expression in BV2 cell line were evaluated. 100 mm dish was inoculated with 1×10^6 cells of BV2 cell line, and treated with both LPS, inflammation-inducing material, and 1˜100 uM of the 2-hydroxybenzoic acid derivative of the present invention, together, in regular concentration interval. After 24 hours of incubation, RNA was extracted. Extracted RNA was used in reverse transcription and polymerase chain reaction, and expression patterns of TNF-alpha, IL-1beta and iNOS were compared."}, "[2]": {"system": "IL-6 production in BV2 cell line", "assay": "Suppressing effect on production of cytokine (ELISA), IL-6", "type": "cell-based", "details": "Mus musculus, BV-2, level in medium, LPS + 100 uM of sample, 24 hours", "experimental": "Effects of the 2-hydroxybenzoic acid derivatives on production of cytokine in BV2 cell line were evaluated. 24-well plate was inoculated with 1×10^6 cells of BV2 cell line, and treated with both LPS, inflammation-inducing material, and 100 uM of sample (the 2-hydroxybenzoic acid derivative or comparative drug), together. After 24 hours of incubation, culture medium was collected. The levels of cytokines, TNF-α and IL-6, in the medium were evaluated by ELISA method."}, "[3]": {"assay": "Single-dose toxicity test", "type": "in vivo", "details": "mouse, in vivo; single dose", "experimental": "FIG. 32 is results of single dose toxicity testing of some 2-hydroxybenzoic acid derivatives according to the present invention.\nSingle-dose toxicities of the 2-hydroxybenzoic acid derivatives were evaluated."}, "[4]": {"system": "AGS cell line (human gastric cancer cells)", "assay": "Cell-protecting effect in AGS cells (Helicobacter, sulindac, H2O2, ethanol; MTT)", "type": "cell-based", "details": "most cell death models", "experimental": "(§1) FIG. 3 is results showing cell-protecting effect of compound 2 on gastric mucous membrane damage induced by Helicobacter. Helicobacter (43504, 5×10^6 cfu/ml) was administered to cultured AGS (human gastric cancer) cell, alone or with sample having indicated concentration. MTT analysis method was used to evaluate the survival rate of gastric mucous membrane cell 24 hours after administration.\nas §1, with “4” for “3”, “sulindac, a NSAID. 100 uM of sulindac” for “Helicobacter. Helicobacter (43504, 5×10^6 cfu/ml)”, “AGS” for “AGS (human gastric cancer)”, “16” for “24”\nFIG. 5 is results showing cell-protecting effect of compound 2 on gastric mucous membrane damage induced by H2O2, oxidative stress. Cultured AGS cell was treated with 100 uM of H2O2 for 8 hours, alone or with sample having indicated concentration, and was washed with culture medium. MTT analysis method was used to evaluate the survival rate of gastric mucous membrane cell 24 hours later. […]\nCell-protecting effect of the 2-hydroxybenzoic acid derivative of the present invention was evaluated. […] After than, the absorbance was analyzed by ELISA reader at 540 nm, and the survival rate of gastric mucous membranes cell was calculated."}, "TNF-α mRNA in AGS cell": {"system": "TNF-α mRNA in AGS cell", "assay": "Expression of TNF-α mRNA in ethanol-treated AGS cells (RT-PCR)", "type": "cell-based, human", "details": "1-100 uM, ethanol 24 hours", "experimental": "FIG. 7 is a picture showing the expression degree of TNF-α mRNA. Cultured AGS cell was treated with 25 mM of alcohol for 24 hours, alone or with compound 2 having indicated concentration. Then, mRNA was extracted and evaluated by RT-PCR method.\nAs one marker of inflammation, the expression level of TNF-α mRNA was evaluated by RT-PCR method. Samples treated with ethanol for 24 hours were used."}, "[5]": {"system": "thermal hyperalgesia induced by carrageenan", "assay": "Carrageenan-induced thermal hyperalgesia", "type": "in vivo, rat", "experimental": "FIG. 11 is results showing efficacy of compound 2 through thermal hyperalgesia induced by carrageenan, one of arthritis animal models. 2% carrageenan was intradermally injected into hindpaw of rat to induce thermal hyperalgesia.\nAnalgesic effect of compound 2, one example of the 2-hydroxybenzoic acid derivative, was evaluated in arthritis model. 2% carrageenan was intradermally injected into left pes of rat, and 3-300 mg/kg of compound 2 was orally administered to evaluate effect of compound 2 on thermal hyperalgesia of arthritis model."}, "[6]": {"system": "IL-1alpha in exudation of air pouch", "assay": "Zymosan air pouch inflammation model, IL-1alpha (ELISA)", "type": "in vivo", "details": "3-300 mg/kg once oral 1 hour before zymosan, 4 hours later", "experimental": "FIG. 13 is graphs showing how much compound 2 decreases the level of IL-1alpha induced by zymosan, one of arthritis animal models. 1% zymosan was administered with air pouch, and compound 2 was once orally administered according to indicated dose 1 hour before administration of zymosan. The level of IL-1alpha in an exudation of air pouch was evaluated by ELISA method 4 hours later.\nAnti-inflammation effect of compound 2 in arthritis model was evaluated with zymosan. 0.5 ml of 1% zymosan was administered with air pouch, and 3-300 mg/kg of compound 2 was once orally administered 1 hour before administration of zymosan. Edema, a main symptom of arthritis, and the level of cytokine were observed 4 hours later."}, "[7]": {"system": "TNF-α, IL-1β and IL-6 in brain", "assay": "Cytokines in brain of APP/PS1 dementia mice (ELISA)", "type": "in vivo, mouse", "details": "25 mg/kg/day in chow for 7 months, vs APP/PS1 fed general chow", "experimental": "FIG. 25 are graphs showing the levels of TNF-α, IL-1β or IL-6 in brain of 10.5 month-old APP/PS1 dementia mouse (Tg+). The levels were evaluated by ELISA method.\nAfter administration of drug for 7 months, the levels of TNF-α, IL-1β and IL-6 were quantified by ELISA (mean±SEM, n=3-5). Significant difference from control (APP/PS1 mouse fed with general chow only), p<0.05 using one-way ANOVA according to Student-Neuman-Keuls' test."}, "[8]": {"system": "microglia in lumbar ventral horn", "assay": "Microglia activation in G93A ALS mouse (TOMATO Lectin)", "type": "in vivo", "details": "5 mg/kg/day", "experimental": "G93A (Glycine ? Alanine) transgenic mouse having similar pathophysiological characteristics with ALS (amyotrophic lateral sclerosis) human patient was used to evaluate therapeutic effect of drug in ALS, one of main degenerative brain diseases.\nActivation degree of microglia (a marker of inflammation in brain disease model) expressed in the lumbar ventral horn of G93A mouse were evaluated with TOMATO Lectin dye. In G93A mouse, microglia was more activated compared to the wild type mouse."}}}
{"smiles": "O=C(O)c1cc(NCCc2ccc(C(F)(F)F)cc2)ccc1O", "note": "[compound 2, 2-hydroxy-5-[2-(4-trifluoromethyl-phenyl)-ethylamino]-benzoic acid]", "values": [{"measurement": "inhibition at 100 µM", "setting": "[1]; Mus musculus, BV-2, 24 h", "value": 63.2, "unit": "%"}, {"measurement": "% Inhibition (in 100 uM) TNF-alpha", "setting": "[1]", "value": 63.2, "unit": "%"}, {"measurement": "inhibition at 100 µM", "setting": "[2]", "value": 70.3, "unit": "%"}, {"measurement": "LD50", "setting": "[3]", "value": "> 3000", "unit": "mg/kg"}, {"measurement": "cell-protecting effect", "setting": "[4]; 1 uM and 10 uM", "value": "more than 50%"}, {"measurement": "cell-protecting effect", "setting": "[4]; 100 uM", "value": "more than 70%"}, {"measurement": "expression of TNF-α mRNA", "setting": "TNF-α mRNA in AGS cell", "value": "completely suppressed"}, {"measurement": "thermal hyperalgesia, comparison with ibuprofen", "setting": "[5]; 100 mg treatment", "value": "equivalent level of decreasing effect with 50 mg/kg of ibuprofen"}, {"measurement": "reduction of thermal hyperalgesia", "setting": "[5]; 300 mg/kg oral", "value": "over 90%"}, {"measurement": "thermal hyperalgesia", "setting": "[5]; 3-300 mg/kg oral", "value": "decreased thermal hyperalgesia in a dose-dependent manner"}, {"measurement": "level of IL-1alpha", "setting": "[6]", "value": "decreased in a dose-dependent manner"}, {"measurement": "levels of TNF-α, IL-1β and IL-6 in brain", "setting": "[7]", "value": "significantly reduced the levels of TNF-α, IL-β and IL-6"}, {"measurement": "number and activation degree of microglia", "setting": "[8]", "value": "decreased the number and activation degree of microglia"}]}
